Laboratory results: US20250032514A1, “COMPOSITIONS AND METHODS FOR THE TREATMENT OF VARIOUS DISEASES” (Amylyx Pharmaceuticals, Inc., priority 2023, published 2025)
Read-outs that look alike come from different tables or passages of the source.

Experiments:
[1] = Study A35-002: single-dose PK of AMX0035, fasted vs high-fat meal, two-period cross-over; type: in vivo, human; details: for half-life: both sexes, human, plasma
Description: The pharmacokinetics (PK) of PB and TURSO after a single dose administration of AMX0035 were determined in adult (40 to 55 years of age) male and female normal healthy participants. Fourteen participants received a single dose of AMX0035 on two occasions (with a washout between periods of no less than 4 days), after fasting or after a high-fat standardized meal in a balanced, two-period, cross-over design (Study A35-002).
Clearance is rapid, and the terminal half-life (t1/2) is less than 1 hour. […] The primary metabolite of PB is phenylacetate (PAA), which occurs endogenously as a phenylalanine metabolite. […] Many participants had two or three peaks of absorption, which is consistent with bile acid storage and release upon a meal/snack. […] The primary metabolites of TURSO include ursodeoxycholic acid (UDCA) and glycoursodeoxycholic acid (GUDCA). All three are naturally occurring hydrophilic bile acids and subject to extensive enterohepatic recirculation.

[2] = test system: G93A SOD1 mouse model of ALS; details: cited from earlier work
[3] = in vivo; cited from earlier work
[4] = single oral dose of AMX0035, healthy adults

Row | half-life ([1]; oral, fasting, read-out: terminal t1/2 (average) (converted)) | terminal t1/2 (average) ([1]; fed) | absorption of TURSO ([1]; given with or without food) | Cmax in the presence of a high-fat meal ([1]; high-fat meal vs fasted) | increase in exposure as AUC0-last in the presence of a high-fat meal ([1]; high-fat meal vs fasted) | SMILES | half-life ([1]; oral, under both the fed and fasted condition, read-out: terminal half-life (converted)) | half-life ([1]; single oral dose of AMX0035, healthy adults, read-out: terminal half-life (t1/2)) | absorption in the presence of a high-fat meal ([1]; high-fat meal vs fasted) | overall exposure in the presence of a high-fat meal ([1]; high-fat meal vs fasted) | absorption of PB [1, 4] | clearance [1, 4] | survival in in vivo models [2] | most common adverse reactions reported (≥1%) [3]
1 |  |  |  |  |  | O=C(O)CCCc1ccccc1 [PB, sodium phenylbutyrate] | ~30 min | < 60 min | significantly slower | lower | rapidly absorbed | rapid | increase survival | 
2 | 288 min | 3.6 h | slowly absorbed | similar | less than 1 fold | C[C@H](CCC(=O)NCCS(=O)(=O)O)[C@H]1CC[C@H]2[C@@H]3[C@@H](O)C[C@@H]4C[C@H](O)CC[C@]4(C)[C@H]3CC[C@]12C [TURSO, taurursodiol] |  |  |  |  |  |  |  | abdominal discomfort, abdominal pain, diarrhea, nausea, pruritus, and rash
